From patent publication US6288091A, “Antiherpes virus compounds and methods for their preparation and use” (Boehringer Ingelheim Ltd., priority 1999, dated 2001)

Key:
HSV-1 helicase-primase = target: T1, HSV-1 helicase-primase (Human herpesvirus 1, UniProt P10189+P10236); test: HSV-1 DNA-dependent ATPase assay (inhibition of HSV-1 helicase-primase); type: biochemical
T1 construct: made in house; host or cells: Sf21 insect cells triply infected with recombinant baculoviruses (UL5, UL8, UL52)
Text: A) HSV-1 DNA-Dependent ATP Assay (an in Vitro Assay Based on the Inhibition of HSV-1 Helicase-primase).
HSV-1 helicase-primase holoenzyme was produced in triply infected Sf21 cells using recombinant baculoviruses expressing the UL5, UL8 and UL52 helicase-primase subunits, as described by S. Dracheva et al., J. Biol. Chem. 1995, 270, 14148. The crude enzyme was purified by ammonium sulfate precipitation, Source 15Q® chromatography and Sephacryl® S-300 HR gel filtration (both purification systems can be obtained from Pharmacia Biotech Inc., Montreal, Quebec, Canada), see S. Dracheva et al., supra.
The DNA-dependent ATPase assay, described by J. J. Crute et al., Nucleic Acids Res. 1988, 16, 6585, was modified and used to evaluate the capability of the compounds of Group 1-formula 1 to inhibit HSV-1 helicase-primase activity. The reaction mixtures (80 μL each) contained 40 mM 4-(2-hydroxyethyl)-1-piperazineethanesulfonic acid (HEPES, pH 7.5), 10% (v/v) glycerol, 5.5 mM MgCl2, 1 mM DL-dithiothreitol (DTT), 50 μg/mL acetylated bovine serum albumin, 3.3% (v/v) DMSO, 4 mM ATP, 25 μM single-stranded M13 DNA hybridized to double-tailed 68-mer oligonucleotide and 3 μg/mL HSV-1 helicase-primase. After incubation for 20 min at 34°, formation of inorganic phosphate from hydrolysis of ATP was monitored spectrophotometrically at 650 nm using acidic ammonium molybdate/malachite green reagent, P. A. Lanzetta et al., Anal. Biochem. 1979, 100, 95. DNA-dependent ATPase activity was calculated from the net absorbance change in the presence and absence of inhibition.

HCMV (strain AD169) [1] = test: Inhibition of HCMV replication, plaque reduction assay (PRA, Hs-68 cells); type: cell-based, Human Cytomegalovirus (HCMV); conditions: read-out: PRA CMV EC50
Method: (§1) C) Inhibition of Human Cytomegalovirus (HCMV) Replication
(§2) The effect of compounds on the replication of HCMV has been measured by using an ELISA-based assay (ELISA) and a plaque reduction assay (PRA).
(§3) Hs-68 cells (ATCC # CRL 1635) were seeded in 12-well plates at 83,000 cells/well in 1 mL of DMEM medium (Gibco Canada Inc.) supplemented with 10% fetal bovine serum (FBS, Gibco Canada Inc.). The plates were incubated for 3 days at 37° to allow the cells to reach 80-90% confluency prior to the assay.
The medium was removed from the cells by aspiration. The cells were then infected with approximately 50 PFU of HCMV (strain AD169, ATCC VR-538) in DMEM medium supplemented with 5% inactivated FBS (assay medium). The virus was allowed to adsorb to cells for 2 h at 37°. Following viral adsorption, the medium was removed from the wells by aspiration. The cells were then incubated with or without 1 mL of appropriate concentrations of test reagent in assay medium. After 4 days of incubation at 37°, the medium was exchanged with fresh medium containing test compound and 4 days later the cells were fixed with 1% aqueous formaldehyde and stained with a 2% crystal violet solution in 20% ethanol in water. Microscopic plaques were counted using a stereomicroscope. Drug effects were calculated as a percent reduction in the number of plaques in the presence of each drug concentration compared to the number observed in the absence of drug. Ganciclovir was used as a positive control in all experiments.
The EC50 values obtained according to this assay for certain thiazolyl derivatives of this invention are listed in the following tables under the heading PRA CMV.

HSV-1 strain F or KOS = test: Inhibition of herpes simplex virus (HSV-1) replication in cell culture (BHK-21 cells, glycoprotein C ELISA); type: cell-based
Method: B) Inhibition of Herpes Simplex Virus (HSV-1) Replication in Cell Culture
BHK-21 cells clone 13 (ATCC CCL10) were incubated for two days in 850 cm^2 roller bottles (2×10^7 cells/bottle) with A-MEM medium (Gibco Canada Inc., Burlington, Ontario, Canada) supplemented with 8% (v/v) fetal bovine serum (FBS, Gibco Canada, Inc.). The cells were trypsinized and then 3,000 cells in 100 μL of fresh medium were transferred into each well of a 96-well microtiter plate. The cells were incubated at […] for a period of 3 days to reach a density of 50,000 cells per well. The cells were washed twice with 100 μL of α-MEM supplemented with 2% heat inactivated FBS and incubated for 1-2 hours in 100 μL of the same medium.
Thereafter, the cells were infected with HSV-1 strain F or KOS (multiplicity of infection =0.05 PFU/cell) in 50 μL of α-MEM supplemented with 2% heat inactivated FBS. Following one hour of virus absorption at 37°, the medium was removed and the cells were washed with α-MEM supplemented with 2% heat inactivated FBS (2×100 μL). The cells were incubated with or without 100 μL of the appropriate concentration of test reagent in α-MEM medium supplemented with 2% heat inactivated FBS. After 24 hours of incubation at 37°, the extent of viral replication was determined by an ELISA assay; for instance, the following assay that detects the late glycoprotein C of HSV-1.
Cells were fixed in the microtiter plate with 100 μL of 0.063% glutaraldehyde in phosphate buffered saline for 30 min at room temperature. The microtiter plate was then washed once with casein blocking solution and blocked with 200 μL of the same solution for one hour at room temperature. Thereafter, 100 μL of mAb C11 recognizing the glycoprotein C of HSV-1 (see E. Trybala et al., Journal of General Virology, 1994, 75, 743) was added to each well for two hours at room temperature. The plate was washed three times with phosphate buffered saline containing 0.05% polyoxyethylene (20) sorbitan monooleate. The cells were incubated with 100 μL of sheep anti-mouse IgG horseradish peroxidase for one hour at room temperature in the dark.
The plate was washed three times with 200 μL of the above-noted phosphate buffer saline preparation, and then once with 0.1 M sodium citrate (pH 4.5). Thereafter, 100 μL of orthophenylenediamine dihydrochloride (OPD, Gibco, Canada Inc.) was added to each well. The plate was agitated on a microplate shaker for 30 min in the dark. Color development was monitored at 450 nm using a microplate spectrophotometer.
SAS was used to calculate % inhibition of viral replication and to generate EC50 values.

HCMV (strain AD169) [2] = test: Inhibition of HCMV replication, ELISA assay (Hs-68 cells); type: cell-based, Human Cytomegalovirus (HCMV); conditions: read-out: ELISA CMV EC50
Method: as §1, §2
as §3, with “96 well microtiter” for “12-well”, “10,000” for “83,000”, “100 μL” for “1 mL”
The medium was removed from wells by aspiration. The cells then were infected at a multiplicity of infection (MOI) of 0.01 PFU/cell with 50 μL of HCMV (strain AD169, ATCC VR-538) in DMEM medium supplemented with 5% heat inactivated FBS (assay medium). The virus was allowed to adsorb to cells for 2 h at 37°. Following viral adsorption, the medium was removed from the wells by aspiration. The cells were washed twice with 200 μL of assay medium to remove unabsorbed virus. The cells were then incubated with or without 100 μL of appropriate concentrations of test reagent in assay medium. After 8 days of incubation at 37°, the extent of viral replication was determined by an ELISA assay which detects the late structural protein p28 of HCMV.
Eight days after infection, the medium was aspirated from the wells. Non-specific binding sites were blocked by adding 200 μL of phosphate buffered saline containing 1% (w/v) bovine serum albumin (blocking buffer) to each well and incubating the plates for 30 min at room temperature. After removal of the blocking buffer by aspiration, the cells were fixed with 100 μL of cold ethanol-acetone solution (95:5) per well. The plates were placed at -20° for 30 min. The plates were washed 4 times with phosphate buffered saline containing 0.05% (v/v) polyoxyethylene sorbitan monolaurate (Tween®). Thereafter, 100 μL of mAb UL99 (Advanced Biotechnologies Inc., #13-130-100) recognizing HCMV protein p28 was added to each wells and plates were incubated for 2 h at room temperature. The plates were washed four times with 200 μL of the above-noted phosphate buffered saline/Tween-20® solution. The cells were then incubated with 100 μL of sheep anti-mouse IgGγ horseradish peroxidase conjugated for 2 h at room temperature. The plates were then washed four times with 200 μL of above-noted phosphate buffered saline/Tween-20® solution. Thereafter, 100 μL of ortho phenylenediamine dihydrochloride (OPD, Gibco Canada Inc.) solution was added to each well and the plates were agitated on a microplate shaker for 30 min in the dark. Color development was monitored at 450 nm using a microplate spectrophotometer.
The SAS program was used to calculate the % inhibition of viral replication and to generate EC50 values.
The EC50 values obtained according to this assay method for certain thiazolylphenyl derivatives of this invention are listed in the following tables under the heading ELISA CMV.

[3] = Human betaherpesvirus 5, AD169, Hs68, Group 1 Table 1 entries
[4] = Human alphaherpesvirus 1, BHK-21, Group 1 Table 1 entries
[5] = Human betaherpesvirus 5, AD169, Hs68, Group 2 Table 1 entries
[6] = Human betaherpesvirus 5, AD169, Hs68, Group 1 Table 3 entries

T1 sequence (P10192 whole entry): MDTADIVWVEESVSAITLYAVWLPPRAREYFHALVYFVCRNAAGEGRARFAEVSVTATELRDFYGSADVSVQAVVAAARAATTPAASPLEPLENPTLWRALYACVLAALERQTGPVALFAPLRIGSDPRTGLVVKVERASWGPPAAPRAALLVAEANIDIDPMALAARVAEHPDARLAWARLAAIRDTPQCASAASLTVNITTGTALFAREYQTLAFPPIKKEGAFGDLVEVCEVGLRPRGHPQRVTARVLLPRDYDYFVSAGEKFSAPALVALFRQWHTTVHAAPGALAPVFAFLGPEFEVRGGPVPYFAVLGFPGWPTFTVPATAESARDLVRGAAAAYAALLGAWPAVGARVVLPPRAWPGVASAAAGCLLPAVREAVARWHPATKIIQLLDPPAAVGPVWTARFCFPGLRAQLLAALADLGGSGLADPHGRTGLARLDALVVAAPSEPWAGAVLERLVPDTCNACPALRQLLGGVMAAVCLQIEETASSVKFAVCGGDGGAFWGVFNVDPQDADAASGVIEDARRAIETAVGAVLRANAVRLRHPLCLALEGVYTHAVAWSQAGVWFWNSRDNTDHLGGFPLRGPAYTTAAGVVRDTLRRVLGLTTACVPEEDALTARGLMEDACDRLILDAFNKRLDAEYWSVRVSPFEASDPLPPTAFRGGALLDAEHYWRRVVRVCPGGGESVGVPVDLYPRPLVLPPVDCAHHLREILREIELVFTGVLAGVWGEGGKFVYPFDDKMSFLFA
T1 sequence (P10236 whole entry): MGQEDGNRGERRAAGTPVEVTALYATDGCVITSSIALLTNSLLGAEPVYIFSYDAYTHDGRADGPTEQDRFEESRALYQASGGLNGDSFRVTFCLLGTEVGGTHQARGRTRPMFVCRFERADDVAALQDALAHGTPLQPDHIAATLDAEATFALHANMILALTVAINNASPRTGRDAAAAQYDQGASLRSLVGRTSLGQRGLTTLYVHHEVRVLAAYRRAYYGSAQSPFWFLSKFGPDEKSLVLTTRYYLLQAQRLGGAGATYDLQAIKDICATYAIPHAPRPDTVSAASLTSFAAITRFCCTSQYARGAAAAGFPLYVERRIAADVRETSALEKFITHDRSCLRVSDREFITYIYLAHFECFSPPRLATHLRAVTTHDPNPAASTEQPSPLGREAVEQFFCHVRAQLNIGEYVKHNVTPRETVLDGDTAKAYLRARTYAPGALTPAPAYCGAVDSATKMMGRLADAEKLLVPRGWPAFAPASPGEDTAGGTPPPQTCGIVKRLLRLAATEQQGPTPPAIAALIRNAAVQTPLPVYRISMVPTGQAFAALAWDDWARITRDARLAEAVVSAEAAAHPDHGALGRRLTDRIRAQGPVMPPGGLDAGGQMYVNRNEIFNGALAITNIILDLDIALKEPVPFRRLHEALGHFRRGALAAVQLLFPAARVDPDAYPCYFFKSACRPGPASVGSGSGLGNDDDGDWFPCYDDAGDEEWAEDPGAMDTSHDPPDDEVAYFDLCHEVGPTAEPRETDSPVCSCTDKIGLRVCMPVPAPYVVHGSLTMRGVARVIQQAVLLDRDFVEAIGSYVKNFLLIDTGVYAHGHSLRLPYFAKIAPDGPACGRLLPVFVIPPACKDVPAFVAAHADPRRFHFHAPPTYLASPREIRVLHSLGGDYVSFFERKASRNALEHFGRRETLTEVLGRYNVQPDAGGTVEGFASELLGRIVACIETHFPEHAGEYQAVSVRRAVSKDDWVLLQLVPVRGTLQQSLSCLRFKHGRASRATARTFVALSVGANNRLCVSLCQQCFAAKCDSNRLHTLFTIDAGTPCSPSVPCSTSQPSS
T1 sequence (P10189 whole entry): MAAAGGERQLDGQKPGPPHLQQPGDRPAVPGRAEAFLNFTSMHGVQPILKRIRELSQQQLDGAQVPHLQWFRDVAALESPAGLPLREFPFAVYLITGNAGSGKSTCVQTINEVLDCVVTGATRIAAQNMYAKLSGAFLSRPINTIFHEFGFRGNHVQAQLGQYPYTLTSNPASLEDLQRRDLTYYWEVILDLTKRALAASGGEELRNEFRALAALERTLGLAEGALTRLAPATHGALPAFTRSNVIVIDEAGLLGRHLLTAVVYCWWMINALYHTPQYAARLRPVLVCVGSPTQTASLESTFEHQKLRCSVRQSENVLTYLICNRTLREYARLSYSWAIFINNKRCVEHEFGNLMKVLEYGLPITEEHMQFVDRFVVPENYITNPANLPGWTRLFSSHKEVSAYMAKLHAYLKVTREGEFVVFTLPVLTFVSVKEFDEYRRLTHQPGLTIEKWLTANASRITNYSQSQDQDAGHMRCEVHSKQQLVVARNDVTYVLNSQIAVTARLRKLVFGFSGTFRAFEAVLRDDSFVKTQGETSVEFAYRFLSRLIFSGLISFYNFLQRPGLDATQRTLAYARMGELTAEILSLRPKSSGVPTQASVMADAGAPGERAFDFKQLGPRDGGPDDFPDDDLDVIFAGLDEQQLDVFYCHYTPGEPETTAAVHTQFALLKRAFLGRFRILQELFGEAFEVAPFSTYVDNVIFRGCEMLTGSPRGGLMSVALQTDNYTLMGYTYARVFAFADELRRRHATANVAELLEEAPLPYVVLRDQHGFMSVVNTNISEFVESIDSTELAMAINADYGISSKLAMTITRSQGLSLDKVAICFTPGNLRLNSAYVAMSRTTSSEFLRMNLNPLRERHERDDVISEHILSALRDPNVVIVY

Row | SMILES | IC50 (HSV-1 helicase-primase; Group 1 Table 1 entries) | EC50 (HCMV (strain AD169) [1]; [3]) | EC50 (HSV-1 strain F or KOS; [4]) | other results
1 | NCC(=O)N(CC(=O)Nc1ccc(-c2csc(N)n2)cc1)Cc1ccccc1 [Example 71] | 30 µM | > 32 µM | – | –
2 | Nc1nc(-c2ccc(NC(=O)CN(Cc3ccccc3)C(=O)C3CCCCCC3)cc2)cs1 [Example 37] | 0.029 µM | > 74 µM | 2 nM | –
3 | CN[C@H](Cc1ccccc1)C(=O)Nc1ccc(-c2csc(N)n2)cc1 [Example 18] | – | – | – | IC50 (HSV-1 helicase-primase; Group 1 Table 5 entries): 24.5 µM; EC50 (HCMV (strain AD169) [1]; Human betaherpesvirus 5, AD169, Hs68, Group 1 Table 5 entries): > 48 µM
4 | C#CCNC(=O)Nc1ccc(-c2csc(N)n2)cc1 [Example 17] | – | – | – | IC50 (HSV-1 helicase-primase; Group 2 Table 1 entries): 33 µM; EC50 (HCMV (strain AD169) [1]; [5]): > 74 µM
5 | C[C@@H](c1ccccc1)N(CC(=O)Nc1ccc(-c2csc(N)n2)cc1)C(=O)c1cccnc1 [Example 134] | 0.26 µM | 18 µM | – | –
6 | CC(C)CN(CC(=O)Nc1ccc(-c2csc(N)n2)cc1)C(=O)OC(C)(C)C [Example 112] | – | – | 1200 nM | EC50 (HCMV (strain AD169) [2]; [3]): 3.2 µM
7 | Nc1nc(-c2ccc(NC(=O)[C@@H]3CCCN3Cc3ccccc3)cc2)cs1 [Example 7] | – | – | – | EC50 (HSV-1 strain F or KOS; Human alphaherpesvirus 1, BHK-21, Group 1 Table 6 entries): 1100 nM; EC50 (HCMV (strain AD169) [2]; Human betaherpesvirus 5, AD169, Hs68, Group 1 Table 6 entries): > 33 µM
8 | Nc1nc(-c2ccc(NC(=O)NCCc3ccccc3)cc2)cs1 [Example 13] | – | – | – | IC50 (HSV-1 helicase-primase; Group 2 Table 1 entries): 37 µM; EC50 (HCMV (strain AD169) [1]; [5]): > 4 µM
9 | Nc1nc(-c2ccc(NC(=O)CCN(Cc3ccccc3)C(=O)c3cccnc3)cc2)cs1 [Example 6] | – | – | – | EC50 (HSV-1 strain F or KOS; Human alphaherpesvirus 1, BHK-21, Group 1 Table 2 entries): 4800 nM; EC50 (HCMV (strain AD169) [1]; Human betaherpesvirus 5, AD169, Hs68, Group 1 Table 2 entries): 22 µM
10 | C[C@@H](C1CCCCC1)N(CC(=O)Nc1ccc(-c2csc(N)n2)cc1)C(=O)OC(C)(C)C [Example 108] | – | – | 390 nM | EC50 (HCMV (strain AD169) [2]; [3]): 6.8 µM
11 | Nc1nc(-c2ccc(NC(=O)CN(Cc3ccccc3)C(=O)COc3ccccc3)cc2)cs1 [Example 120] | 0.54 µM | 15 µM | – | –
12 | CN(C(=O)CNCc1ccccc1)c1ccc(-c2csc(N)n2)cc1 [Example 3] | – | – | – | IC50 (HSV-1 helicase-primase; Group 1 Table 3 entries): 13 µM; EC50 (HSV-1 strain F or KOS; Human alphaherpesvirus 1, BHK-21, Group 1 Table 3 entries): 4000 nM; EC50 (HCMV (strain AD169) [1]; [6]): 80 µM
13 | Nc1nc(-c2ccc(NC(=O)CNC(=O)c3ccccn3)cc2)cs1 [Example 19] | 13 µM | 20 µM | 4500 nM | –
14 | Nc1nc(-c2ccc(NC(=O)CN(Cc3ccc(Cl)cc3)C(=O)C3CCCCC3)cc2)cs1 [Example 45] | 0.05 µM | 5.5 µM | 1 nM | –
15 | C[C@H](c1ccccc1)N(CC(=O)Nc1ccc(-c2csc(N)n2)cc1)C(=O)c1ccncc1 [Example 137] | 0.98 µM | 49 µM | – | –
16 | Nc1nc(-c2ccc(NC(=O)CNC(=O)c3ccncc3)cc2)cs1 [Example 21] | 4.2 µM | > 71 µM | 1300 nM | –
17 | Nc1nc(-c2ccc(NC(=O)CN(CCc3ccccc3)C(=O)c3ccncc3)cc2)cs1 [Example 125] | 0.159 µM | 80 µM | – | –
18 | Nc1nc(-c2ccc(NC(=O)N[C@H](CO)Cc3ccccc3)cc2)cs1 [Example 28] | – | – | – | IC50 (HSV-1 helicase-primase; Group 2 Table 1 entries): 6.6 µM; EC50 (HCMV (strain AD169) [1]; [5]): 30 µM
19 | Nc1nc(-c2ccc(NC(=O)CNCc3ccc(F)cc3)cc2)cs1 [Example 4] | 3.5 µM | 16 µM | 1800 nM | –
20 | C[C@H](c1ccccc1)N(CC(=O)Nc1ccc(-c2csc(N)n2)cc1)C(=O)Cc1ccccn1 [Example 136] | 4.2 µM | 31 µM | – | –
21 | Nc1nc(-c2ccc(NC(=O)CNC(=O)c3cccnc3)cc2)cs1 [Example 20] | 23 µM | 60 µM | – | –
22 | Nc1nc(-c2ccc(NC(=O)CN(Cc3cccc(F)c3)C(=O)Cc3ccccn3)cc2)cs1 [Example 126] | – | 35 µM | – | –
23 | C[C@@H](c1ccccc1)N(CC(=O)Nc1ccc(-c2csc(NC(=O)OC(C)(C)C)n2)cc1)C(=O)Cc1ccccn1 [Example 25] | – | – | – | EC50 (HCMV (strain AD169) [1]; [6]): 2.7 µM
